In experiment [1] the target is T1, proMMP9(20-445;ΔFnII) (SEQ ID NO:6) (Homo sapiens, UniProt P14780, DEL216-390).
T1 construct: start methionine (N); made in house; host or cells: E. coli BL21(DE3) RIL
T1 sequence (P14780 with tags, fused parts or gaps DEL216-390): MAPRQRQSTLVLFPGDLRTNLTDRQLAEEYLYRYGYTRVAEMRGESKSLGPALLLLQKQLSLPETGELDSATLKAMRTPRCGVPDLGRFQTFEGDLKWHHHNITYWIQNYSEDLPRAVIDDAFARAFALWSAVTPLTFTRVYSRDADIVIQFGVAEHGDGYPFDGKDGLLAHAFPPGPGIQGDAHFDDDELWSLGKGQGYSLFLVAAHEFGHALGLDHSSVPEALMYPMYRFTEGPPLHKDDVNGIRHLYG
Nature of the experiment: ThermoFluor binding assay with proMMP9(20-445;ΔFnII). An outline of the steps: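 Protein thermal stability was measured with 2.8 μM proMMP9(20-445;ΔFnII) and 50 μM 1,8-ANS in 50 mM HEPES pH 7.0, 100 mM NaCl, 0.001% Tween-20, 2.5 mM MgCl2, 300 μM CaCl2, across serial compound dilutions. Samples were heated 40–90° C at 1° C/min with fluorescence read at 500 nm. Tm was fitted, and binding was derived from thermodynamic parameters obtained by DSC and ThermoFluor.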

In experiment [2] the target is T2, proMMP9(67-444;ΔFnII) (SEQ ID NO:5) (Homo sapiens, UniProt P14780, DEL216-390).
T2 construct: start methionine (N); made in house; host or cells: E. coli BL21(DE3) RIL
T2 sequence (P14780 with tags, fused parts or gaps DEL216-390): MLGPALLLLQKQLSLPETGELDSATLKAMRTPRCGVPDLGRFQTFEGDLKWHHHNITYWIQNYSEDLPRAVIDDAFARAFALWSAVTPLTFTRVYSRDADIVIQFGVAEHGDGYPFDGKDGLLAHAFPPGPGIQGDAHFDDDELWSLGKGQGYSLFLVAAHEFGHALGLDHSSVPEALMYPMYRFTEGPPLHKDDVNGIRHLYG
Nature of the experiment: ThermoFluor binding assay with proMMP9(67-444;ΔFnII). A digest of the protocol:
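Thermal shift of 3.5 μM proMMP9(67-444;ΔFnII), desalted beforehand, with 50 μM 1,8-ANS in 50 mM HEPES pH 7.0, 100 mM NaCl, 2.5 mM MgCl2, 300 μM CaCl2, 0.001% Tween-20. Heated 40–90 °C at 1 °C/min, fluorescence read at 500 nm; binding fitted from Tm shifts using DSC- and ThermoFluor-derived unfolding parameters.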
(DSF heats the sample and reads unfolding from a dye or from intrinsic fluorescence.)

The target of experiment [3] is T3, full-length proMMP9(1-707) activation by catalytic MMP3 (Homo sapiens, UniProt P14780, R574P).
T3 construct: made in house; host or cells: proMMP9: HEK293 (secreted); MMP3: E. coli
T3 sequence (P14780 20-707 R574P): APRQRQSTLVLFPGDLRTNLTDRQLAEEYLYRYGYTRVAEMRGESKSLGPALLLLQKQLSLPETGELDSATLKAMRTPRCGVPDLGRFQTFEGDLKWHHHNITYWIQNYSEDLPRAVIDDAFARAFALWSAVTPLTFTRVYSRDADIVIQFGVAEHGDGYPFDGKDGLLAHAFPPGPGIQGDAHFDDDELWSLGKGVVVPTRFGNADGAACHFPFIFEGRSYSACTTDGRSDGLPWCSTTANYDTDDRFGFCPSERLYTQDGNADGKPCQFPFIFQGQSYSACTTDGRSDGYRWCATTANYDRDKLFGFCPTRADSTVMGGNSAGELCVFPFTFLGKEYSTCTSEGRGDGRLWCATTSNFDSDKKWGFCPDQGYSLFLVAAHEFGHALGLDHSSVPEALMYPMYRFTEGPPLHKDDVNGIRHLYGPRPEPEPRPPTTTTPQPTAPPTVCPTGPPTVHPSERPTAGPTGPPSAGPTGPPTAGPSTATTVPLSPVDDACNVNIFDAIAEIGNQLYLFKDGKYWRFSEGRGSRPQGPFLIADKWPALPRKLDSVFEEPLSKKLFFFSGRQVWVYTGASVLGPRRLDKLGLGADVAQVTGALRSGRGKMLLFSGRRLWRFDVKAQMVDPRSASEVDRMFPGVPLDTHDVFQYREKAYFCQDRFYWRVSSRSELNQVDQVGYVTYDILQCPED
Description: proMMP9/MMP3 P126 Activation Assay. Format: biochemical. The method, then: proMMP9/MMP3 P126 Activation Assay
The reaction volume was 50 μL. […] Reactivity of residual MMP3 towards P-126 substrate was minimal under these conditions.

Counter-ions that a name gives are not always drawn.

Broadly, the Kd is the constant that tells how readily two partners part at equilibrium. Read a low Kd as tighter binding. A word on the IC50: it is the point on the concentration scale where inhibition reaches its midpoint. High values mean a need for much substance, low ones inhibition by little substance.

For the compound `COc1ccc(F)cc1Nc1nc2c(ccc3ncn(C)c32)s1` [Example 127, (5-Fluoro-2-methoxy-phenyl)-(8-methyl-8H-imidazo[4′,5′:3,4]benzo[2,1-d]thiazol 2-yl)-amine.TFA], the Kd in experiment [1] is 4300 nM; in experiment [2], 980 nM. In addition, 270 nM corresponded to half-maximal inhibition in experiment [3] (IC50).
In the same order, the values of `CCOP(=O)(OCC)c1ccc(OC)c(Nc2nc3c(ccc4c3ncn4C)s2)c1` [Example 66, [4-Methoxy-3-(6-methyl-6H-imidazo[4′,5′:3,4]benzo[2,1-d]thiazol-2-ylamino)-phenyl]-phosphonic acid diethyl ester.HCl] are 5900 nM, 1700 nM and 2300 nM.
In the same order, the values of `Cn1ncc2c3nc(Nc4cc(C(N)=O)ccc4OC(F)(F)F)sc3ccc21` [Example 113, 3-(6-Methyl-6H-3-thia-1,6,7-triaza-as-indacen-2-ylamino)-4-trifluoromethoxy-benzamide.TFA] are 140 nM, 1500 nM and 250 nM.
In the same order, the values of `COc1ccncc1Nc1nc2c(ccc3nc(C)n(C)c32)s1` [Example 154, N-(4-Methoxypyridin-3-yl)-7,8-dimethyl-8H-imidazo[4′,5′:5,6]benzo[1,2-d]thiazol-2-amine.TFA] are 6600 nM, 1100 nM and 630 nM.
Regarding `CC(C)Oc1ccc(S(C)(=O)=O)cc1Nc1nc2c(ccc3c2ncn3C)s1` [Example 147, (2-Isopropoxy-5-methanesulfonyl-phenyl)-(6-methyl-6H-imidazo[4′,5′:3,4]benzo[2,1-d]thiazol-2-yl)-amine.TFA], the Kd in experiment [1] was found to be 1400 nM; in experiment [2], 400 nM. Further, in experiment [3], the concentration for half-maximal inhibition (IC50) is 220 nM.
The like results for `COc1ccncc1Nc1nc2c(ccc3c2ncn3C)s1` [Example 149, (4-Methoxy-pyridin-3-yl)-(6-methyl-6H-imidazo[4′,5′:3,4]benzo[2,1-d]thiazol-2-yl)-amine.TFA] were, in that order, 1000 nM, 39 nM and 110 nM.
With `COc1ccc(Cl)cc1Nc1nc2c(ccc3nc(N)sc32)s1` [Example 7, N^7-(5-Chloro-2-methoxy-phenyl)-benzo[1,2-d;3,4-d′]-bisthiazole-2,7-diamine.TFA], the dissociation constant (Kd) in experiment [1] was determined as 2300 nM; in experiment [2], 200 nM. In experiment [3], this compound gave an IC50 of 1700 nM.
In the same order, the values of `CC(C)Oc1ccc(S(N)(=O)=O)cc1Nc1nc2c(ccc3ncn(CC(F)(F)F)c32)s1` [Example 137, 4-Isopropoxy-3-[8-(2,2,2-trifluoro-ethyl)-8H-imidazo[4′,5′:3,4]-benzo[2,1-d]thiazol-2-ylamino]-benzenesulfonamide.TFA] are 440 nM, 630 nM and 1100 nM.
Consider `COc1ccc(F)cc1Nc1nc2c(ccc3c2cnn3C)s1` [Example 93, (5-Fluoro-2-methoxy-phenyl)-(6-methyl-6H-3-thia-1,6,7-triaza-as-indacen-2-yl)-amine.HCl], for which the Kd in experiment [1] was 19000 nM; in experiment [2] it was 8100 nM. Besides, it took 180 nM to reach half-maximal inhibition in experiment [3] (IC50).
In the same order, the values of `Cc1[nH]c2c(ccc3sc(Nc4cc(C(N)=O)ccc4OC(C)C)nc32)c1C` [Example 45, 3-(6,7-Dimethyl-8H-3-thia-1,8-diaza-as-indacen-2-ylamino)-4-isopropoxy-benzamide.HCl] are 780 nM, 3300 nM and 3900 nM.
The like results for `CCn1c(C)nc2ccc3sc(Nc4cc(S(C)(=O)=O)ccc4OC)nc3c21` [Example 133, (8-Ethyl-7-methyl-8H-imidazo[4′,5′:3,4]benzo[2,1-d]thiazol-2-yl)-(5-methanesulfonyl-2-methoxy-phenyl)-amine.TFA] were, in that order, 1300 nM, 310 nM and 280 nM.
With `COc1ccc(NC(N)=O)cc1Nc1nc2c(ccc3c2ncn3C)s1` [Example 87, [4-Methoxy-3-(6-methyl-6H-imidazo[4′,5′:3,4]benzo[2,1-d]thiazol-2-ylamino)-phenyl]-urea.HCl], the dissociation constant (Kd) was 6000 nM in experiment [1] and 1600 nM in experiment [2]. The same compound yielded a half-maximal inhibitory concentration (IC50) in experiment [3] of 650 nM.
In the same order, the values of `COc1ccc(C#N)cc1Nc1nc2c(ccc3c2ncn3C)s1` [Example 67, 4-Methoxy-3-(6-methyl-6H-imidazo[4′,5′:3,4]benzo[2,1-d]thiazol-2-ylamino)-benzonitrile.HCl] are 87 nM, 77 nM and 100 nM.
As to `COc1c(F)cc(C(N)=O)cc1Nc1nc2c(ccc3c2ncn3C)s1` [Example 48, 3-Fluoro-4-methoxy-5-(6-methyl-6H-imidazo[4′,5′:3,4]benzo[2,1-d]thiazol-2-ylamino)-benzamide.HCl], the Kd worked out at 1900 nM in experiment [1] and 810 nM in experiment [2]. Moreover, in experiment [3], the midpoint of inhibition, the IC50, lay at 360 nM.
Consider `COc1ccc(S(N)(=O)=O)cc1Nc1nc2c(ccc3c2cnn3C)s1` [Example 103, 4-Methoxy-3-(6-methyl-6H-3-thia-1,6,7-triaza-as-indacen-2-ylamino)-benzenesulfonamide.TFA], for which the Kd in experiment [1] amounted to 750 nM; in experiment [2], 370 nM. In experiment [3], this compound displayed an IC50 of 380 nM.
The like results for `COc1ccc(S(=O)(=O)N2CCCC2)cc1Nc1nc2c(ccc3c2ncn3C)s1` [Example 72, [2-Methoxy-5-(pyrrolidine-1-sulfonyl)-phenyl]-(6-methyl-6H-imidazo[4′,5′:3,4]benzo[2,1-d]thiazol-2-yl)-amine.HCl] were, in that order, 2100 nM, 1600 nM and 460 nM.
Turning to `CCOc1ccncc1Nc1nc2c(ccc3c2ncn3C)s1` [Example 156, N-(4-Ethoxypyridin-3-yl)-6-methyl-6H-imidazo[4′,5′:5,6]benzo[1,2-d]thiazol-2-amine.HCl], the results for the dissociation constant Kd in experiment [1] and in experiment [2] were 650 nM and 40 nM, respectively. The same compound registered an IC50 in experiment [3] of 100 nM.
The like results for `CC(C)Oc1ccc(S(N)(=O)=O)cc1Nc1nc2c(ccc3cnccc32)s1` [Example 105, 4-Isopropoxy-3-(thiazolo[4,5-f]isoquinolin-2-ylamino)-benzenesulfonamide.TFA] were, in that order, 65000 nM, 800 nM and 850 nM.
In the same order, the values of `Cn1cnc2c3nc(Nc4cc(C#N)ccc4OC(F)(F)F)sc3ccc21` [Example 164] are 360 nM, 110 nM and 180 nM.
The like results for `COc1ccc(S(C)(=O)=O)cc1Nc1nc2c(ccc3cnccc32)s1` [Example 97, (5-Methanesulfonyl-2-methoxy-phenyl)-thiazolo[4,5-f]isoquinolin-2-yl-amine.TFA] were, in that order, 4400 nM, 1000 nM and 180 nM.
For the compound `Cc1nc2c3nc(Nc4cnccc4OC(C)C)sc3ccc2n1C` [Example 158, N-(4-Isopropoxypyridin-3-yl)-6,7-dimethyl-6H-imidazo[4′,5′:5,6]benzo[1,2-d]thiazol-2-amine.HCl], the equilibrium dissociation constant (Kd) in experiment [1] was 260 nM; in experiment [2], 14 nM. This compound also returned a half-inhibitory concentration (IC50) in experiment [3] of 64 nM.
The like results for `COc1ccc(C#N)cc1Nc1nc2c(ccc3c2cnn3C)s1` [Example 112, 4-Methoxy-3-(6-methyl-6H-3-thia-1,6,7-triaza-as-indacen-2-ylamino)-benzonitrile.TFA] were, in that order, > 95000 nM, 7000 nM and 160 nM.
Consider `COc1ccc(F)cc1Nc1nc2c(ccc3cnccc32)s1` [Example 99, (5-Fluoro-2-methoxy-phenyl)-thiazolo[4,5-f]isoquinolin-2-yl-amine.TFA], for which the Kd in experiment [1] turned out to be 20000 nM; in experiment [2] it was 3200 nM. In addition, the IC50 in experiment [3] is 870 nM.
With `CCn1c(C)nc2ccc3sc(Nc4cc(F)ccc4OC)nc3c21` [Example 121, (8-Ethyl-7-methyl-8H-imidazo[4′,5′:3,4]benzo[2,1-d]thiazol-2-yl)-(5-fluoro-2-methoxy-phenyl)-amine.TFA], the dissociation constant (Kd) in experiment [1] amounted to 4000 nM; in experiment [2] it was 860 nM. Also, in experiment [3], half-maximal inhibition (IC50) was put at 310 nM.
`COc1ccc(C(N)=O)cc1Nc1nc2c(ccc3cnccc32)s1` [Example 96, 4-Methoxy-3-(thiazolo[4,5-f]isoquinolin-2-ylamino)-benzamide.TFA]: the dissociation constant (Kd) turned out to be 730 nM in experiment [1] and 440 nM in experiment [2]. This compound returned an IC50 in experiment [3] of 730 nM.

These data come from patent publication US20120129811A1, “TRICYCLIC INHIBITORS OF PRO-MATRIX METALLOPROTEINASE ACTIVATION” (priority 2010, published 2012).
